In US20210315799A1, “Composition for Promoting Differentiation or Proliferation of Human Adipose-Derived Stem Cell” (LG Household & Health Care Ltd., priority 2018, published 2021):

Legend:
Type in all cases: cell-based
[1] = system: human adipose-derived stem cells; assay: Cell activity / proliferation by CCK-8 kit (Example 6); settings: for cell activity rates / proliferation of human adipose-derived stem cells compared to a control: FIG. 6; for concentration at which the substance showed the highest cell activity: tested at 0.2 ppm, 2 ppm and 20 ppm
Method: Human adipose-derived stem cells were purchased from Lonza, Inc. (Walkersville, Md., USA) and incubated in a CO2 incubator at 37° C. under 5% CO2 conditions. After the human adipose-derived stem cells were treated with 0.2 ppm, 2 ppm, and 20 ppm, respectively, cell activities thereof were identified using a CCK-8 kit (Dojindo).

[2] = system: human adipose-derived stem cells; assay: Quantified differentiation: eluted Oil Red O, absorbance at 490 nm (Example 3); settings: Oil Red O eluted with isopropanol, absorbance 490 nm; compared with negative control (differentiation medium only); FIG. 2
Method: (§1) Human adipose-derived stem cells were purchased from Lonza, Inc. (Walkersvile, Md., USA) and cultured according to guidelines of Lonza, Inc. Differentiation into adipose cells was evaluated using a differentiation medium recommended by Lonza, Inc. As a positive control, the cells were treated with 1 μM rosiglitazone together with the differentiation medium. In order to induce differentiation of human adipose-derived stem cells into adipose cells, a cell culture solution was removed at 3 to 5 days after cell culturing was initiated, and the cells were treated with formononetin, acetyl mandelic acid, Magnoliae cortex extract, and the positive control for 14 days.
(§2) At 14 days after differentiation was initiated, the cell culture solution was removed, and the cells were washed with a phosphate buffer (DPBS) and immobilized using 10% formalin. The immobilized cells were observed using a microscope after staining fats and lipids contained in the adipose cells with Oil Red 0.
Cultured human adipose-derived stem cells were treated with 12 types of the compounds including formononetin and a Magnoliae cortex extract and an Aloe vera extract in the same manner as in Example 2. Stained Oil Red 0 was eluted using a 100% isopropanol solution, and absorbance thereof was measured at a wavelength of 490 nm and quantified. […] It was confirmed that the substances according to the present invention promoted differentiation of human adipose-derived stem cells into adipose cells and effectively promoted differentiation into adipose cells compared to non-differentiation substances such as kaempferol. Thus, the compositions including the substances according to the present invention may be used for anti-aging purposes to enhance skin elasticity and reduce skin wrinkles by promoting differentiation of human adipose-derived stem cells and increasing the number of subcutaneous fat cells.

[3] = system: human adipose-derived stem cells; assay: Oil Red O staining of differentiated adipose cells, observed by microscope (Example 2); settings: treated 14 days; compared with negative control treated only with differentiation medium; FIG. 1
Method: as §1, §2

| Compound | cell activity rates / proliferation of human adipose-derived stem cells compared to a control [1] | concentration at which the substance showed the highest cell activity [1] | relative differentiation rate of human adipose-derived stem cells into adipose cells [2] | effects on differentiation of human adipose-derived stem cells into adipose cells (Oil Red O staining) [3] |
| --- | --- | --- | --- | --- |
| O=C(O)c1cc(O)c(O)c(O)c1 [gallic acid] | significantly increased | 20 ppm | – | – |
| CC(=O)OC(C(=O)O)c1ccccc1 (stereo not shown) [acetyl mandelic acid, O-acetyl mandelic acid] | – | – | effectively promote differentiation | superior to those of the negative control |
| terpineol | significantly increased | 20 ppm | – | – |
| O=c1c(O)c(-c2ccc(O)cc2)oc2cc(O)cc(O)c12 [kaempferol, reference compound] | – | – | non-differentiation | – |
| O=C(O)/C=C/c1ccc(O)c(O)c1 [caffeic acid] | significantly increased | 20 ppm | effectively promote differentiation | – |
| CC1=C[C@H](O)CC(C)(C)[C@H]1/C=C/C(C)=C/C=C/C(C)=C/C=C/C=C(C)/C=C/C=C(C)/C=C/C1=C(C)C[C@@H](O)CC1(C)C [xanthophyll, lutein] | significantly increased | 20 ppm | effectively promote differentiation | – |
| O=C(O)CCCC[C@@H]1CCSS1 (racemic) [thioctic acid] | significantly increased | 20 ppm | – | – |
| CC(C)=CCC[C@@H](C)[C@H]1CC[C@@]2(C)C3=C(CC[C@]12C)[C@@]1(C)CC[C@H](O)C(C)(C)[C@@H]1CC3 [lanosterol] | significantly increased | 2 ppm | – | – |
| Cc1cc2nc3c(=O)[nH]c(=O)nc-3n(C[C@H](O)[C@H](O)[C@H](O)COP(=O)([O-])O)c2cc1C.[Na+] [sodium riboflavin phosphate] | significantly increased | 20 ppm | – | – |
| Cc1cc(S(=O)(=O)[O-])c2c(C)ccc(C(C)C)cc1-2.[Na+] [sodium guaiazulene sulfonate] | – | – | effectively promote differentiation | – |
| CC1(C)[C@@H](O)CC[C@]2(C)[C@H]3C(=O)C=C4[C@@H]5C[C@@](C)(C(=O)O)CC[C@]5(C)CC[C@@]4(C)[C@]3(C)CC[C@@H]12 [glycyrrhetinic acid] | significantly increased | 20 ppm | – | – |
| Cc1cc2nc3c(=O)[nH]c(=O)nc-3n(C[C@H](O)[C@H](O)[C@H](O)CO)c2cc1C [lactoflavin, riboflavin] | significantly increased | 20 ppm | – | – |
| laccaic acid | – | – | effectively promote differentiation | – |
| COc1ccc(-c2coc3cc(O)ccc3c2=O)cc1 [formononetin] | – | – | effectively promote differentiation | superior to those of the negative control |
| O=c1cccccc1O [tropolone] | significantly increased | 2 ppm | – | – |
| O=C(O)/C=C/c1cccc(O)c1 [hydroxycinnamic acid, m-coumaric acid] | – | – | effectively promote differentiation | – |
| Cc1cc(O)c2c(c1)C(=O)c1cc(O)cc(O)c1C2=O [emodin] | – | – | effectively promote differentiation | – |
| CCCCCCCCCCCCCCCC(N)=O [palmitamide] | – | – | effectively promote differentiation | – |
| CC(C)c1cc2c(c(O)c1O)[C@@]1(C(=O)O)CCCC(C)(C)[C@@H]1CC2 [carnosic acid] | significantly increased | 2 ppm | effectively promote differentiation | – |
| COC1=C(OC)C(=O)C(C/C=C(\C)CC/C=C(\C)CC/C=C(\C)CC/C=C(\C)CC/C=C(\C)CC/C=C(\C)CC/C=C(\C)CC/C=C(\C)CC/C=C(\C)CCC=C(C)C)=C(C)C1=O [ubiquinone, ubiquinone 10] | – | – | effectively promote differentiation | – |
| CC(=O)CCc1ccc(O)cc1 [raspberry ketone] | significantly increased | 20 ppm | – | – |
| CC1=CC(=O)c2ccccc2C1=O [menadione] | significantly increased | 0.2 ppm | – | – |
